Reference: ChEMBL document CHEMBL4196213, “Design and Synthesis of Novel Amino-triazine Analogues as Selective Bruton's Tyrosine Kinase Inhibitors for Treatment of Rheumatoid Arthritis” (J Med Chem, 2018)
Values after ≈ are worked out from the molar mass of the structure shown. One block for each molecule: values may come before it.

How the values were obtained:
[1] = Kinetic solubility of the compound incubated for 1 hr by LC-UV or LC-MS/MS analysis; type: physicochemical; conditions: read-out: Kinetic_solubility
[2] = MRT (0 to infinity) in dog at 1 mg/kg, iv; type: ADME, organism-based, Canis lupus familiaris; conditions: in vivo
[3] = Volume of distribution in dog at 1 mg/kg, iv; type: ADME, organism-based, Canis lupus familiaris; conditions: in vivo
[4] = AUC (0 to infinity) in dog at 2 mg/kg, po; type: ADME, organism-based, Canis lupus familiaris; design: dose 2 mg/kg, time infinity, route oral; conditions: in vivo
[5] = Tmax in dog at 2 mg/kg, po; type: ADME, organism-based, Canis lupus familiaris; conditions: in vivo
[6] = Cmax in dog at 1 mg/kg, iv; type: ADME, organism-based, Canis lupus familiaris; design: dose 1 mg/kg, route intravenous; conditions: in vivo
[7] = AUC (0 to t) in dog at 2 mg/kg, po; type: ADME, organism-based, Canis lupus familiaris; conditions: in vivo
[8] = Oral bioavailability in dog at 2 mg/kg, iv; type: ADME, organism-based, Canis lupus familiaris; conditions: in vivo
[9] = Cmax in dog at 2 mg/kg, po; type: ADME, organism-based, Canis lupus familiaris; design: dose 2 mg/kg, route oral; conditions: in vivo
[10] = AUC (0 to infinity) in dog at 1 mg/kg, iv; type: ADME, organism-based, Canis lupus familiaris; design: dose 1 mg/kg, time infinity, route intravenous; conditions: in vivo
[11] = AUC (0 to t) in dog at 1 mg/kg, iv; type: ADME, organism-based, Canis lupus familiaris; conditions: in vivo
[12] = Apparent permeability in human Caco2 cells; type: ADME, cell-based; conditions: Caco-2
[13] = Cmax in mouse at 2 mg/kg, iv; type: ADME, organism-based; design: dose 2 mg/kg, route intravenous; conditions: in vivo
[14] = AUC (0 to t) in rat at 1 mg/kg, iv; type: ADME, organism-based; conditions: in vivo
[15] = Oral bioavailability in mouse at 10 mg/kg; type: ADME, organism-based; conditions: in vivo
[16] = Volume of distribution in rat at 1 mg/kg, iv; type: ADME, organism-based; conditions: in vivo
[17] = MRT (0 to infinity) in mouse at 2 mg/kg, iv; type: ADME, organism-based; conditions: in vivo
[18] = Tmax in rat at 10 mg/kg, po; type: ADME, organism-based; conditions: in vivo
[19] = MRT (0 to infinity) in mouse at 10 mg/kg, po; type: ADME, organism-based; conditions: in vivo
[20] = AUC (0 to t) in mouse at 2 mg/kg, iv; type: ADME, organism-based; conditions: in vivo
[21] = Oral bioavailability in rat at 10 mg/kg; type: ADME, organism-based; conditions: in vivo
[22] = Tmax in mouse at 10 mg/kg, po; type: ADME, organism-based; conditions: in vivo
[23] = AUC (0 to t) in rat at 10 mg/kg, po; type: ADME, organism-based; conditions: in vivo
[24] = MRT (0 to infinity) in rat at 1 mg/kg, iv; type: ADME, organism-based; conditions: in vivo
[25] = MRT (0 to infinity) in rat at 10 mg/kg, po; type: ADME, organism-based; conditions: in vivo
[26] = AUC (0 to infinity) in mouse at 2 mg/kg, iv; type: ADME, organism-based; design: dose 2 mg/kg, time infinity, route intravenous; conditions: in vivo
[27] = Volume of distribution in mouse at 2 mg/kg, iv; type: ADME, organism-based; conditions: in vivo
[28] = Cmax in rat at 1 mg/kg, iv; type: ADME, organism-based; design: dose 1 mg/kg, route intravenous; conditions: in vivo
[29] = AUC (0 to t) in mouse at 10 mg/kg, po; type: ADME, organism-based; conditions: in vivo
[30] = AUC (0 to infinity) in rat at 10 mg/kg, po; type: ADME, organism-based; design: dose 10 mg/kg, route oral, time infinity; conditions: in vivo
[31] = Cmax in rat at 10 mg/kg, po; type: ADME, organism-based; design: dose 10 mg/kg, route oral; conditions: in vivo
[32] = AUC (0 to infinity) in mouse at 10 mg/kg, po; type: ADME, organism-based; design: dose 10 mg/kg, time infinity, route oral; conditions: in vivo

Compound: N#Cc1cc(Nc2nc(N)nc(-c3cccc(-n4ccc5cc(C6CC6)cc(F)c5c4=O)c3CO)n2)cn1C1CC1
- solubility kinetic at 1 h [1]: 4 µM (≈ 2.19 µg/mL)

Compound: Cn1cc(Nc2nc(N)nc(-c3cccc(-n4ccc5cc(C6CC6)cc(F)c5c4=O)c3CO)n2)cc1C#N
- solubility kinetic at 1 h [1]: 0.67 µM (≈ 0.35 µg/mL)

Compound: CC(C1CC1)n1cc(Nc2nc(N)nc(-c3cccc(-n4ccc5cc(C6CC6)cc(F)c5c4=O)c3CO)n2)cn1 (configuration not stated)
- solubility kinetic at 1 h [1]: 2 µM (≈ 1.11 µg/mL)

Compound: Nc1nc(Nc2cn[nH]c2)nc(-c2cccc(-n3ccc4cc(C5CC5)cc(F)c4c3=O)c2CO)n1
- solubility kinetic at 1 h [1]: 12 µM (≈ 5.81 µg/mL)

Compound: Nc1nc(Nc2ccc(N3CCOCC3)cc2)nc(-c2cccc(-n3ccc4cc(C5CC5)cc(F)c4c3=O)c2CO)n1
- solubility kinetic at 1 h [1]: 1.2 µM (≈ 0.696 µg/mL)

Compound: CC(C)(C)c1ccc(C(=O)Nc2cccc(-c3nc(N)nc(Nc4ccc(C(=O)N5CCOCC5)cc4)n3)c2CO)cc1
- Papp [12]: 7.4 ×10⁻⁶ cm/s

Compound: Cn1cc(Nc2nc(N)nc(-c3cccc(-n4ccc5cc(C6CC6)cc(F)c5c4=O)c3CO)n2)cn1 [SOFNOBRUTINIB]
- Cmax [13]: 2890 ng/mL
- solubility kinetic at 1 h [1]: 20 µM (≈ 9.97 µg/mL)
- AUC(0-t) [14]: 1920 ng·h/mL
- bioavailability [15]: 65.8%
- Vd [16]: 1.1 L/kg
- MRT inf [17]: 1.3 h
- Tmax [18]: 2 h
- MRT inf [19]: 1.56 h
- AUC(0-t) [20]: 3110 ng·h/mL
- bioavailability [21]: 44.4%
- Tmax [22]: 0.5 h
- AUC(0-t) [23]: 8700 ng·h/mL
- MRT inf [24]: 1.79 h
- MRT inf [25]: 4.88 h
- AUC(0-inf) [26]: 3110 ng·h/mL
- Vd [27]: 3.03 L/kg
- Cmax [28]: 1380 ng/mL
- AUC(0-t) [29]: 10200 ng·h/mL
- AUC(0-inf) [30]: 8710 ng·h/mL
- Cmax [31]: 1480 ng/mL
- AUC(0-inf) [32]: 10200 ng·h/mL

Results, then the molecule that gave them:

- MRT inf [2]: 3.31 h
- Vd [3]: 0.29 L/kg
- AUC(0-inf) [4]: 10000 ng·h/mL
- Tmax [5]: 2 h
- Cmax [6]: 4960 ng/mL
- AUC(0-t) [7]: 9850 ng·h/mL
- bioavailability [8]: 43.7%
- Cmax [9]: 2090 ng/mL
- AUC(0-inf) [10]: 11500 ng·h/mL
- AUC(0-t) [11]: 11300 ng·h/mL
Compound: Cn1cc(Nc2nc(N)nc(-c3cccc(-n4ccc5cc(C6CC6)cc(F)c5c4=O)c3CO)n2)cn1.O=S(=O)(O)O

- solubility kinetic at 1 h [1]: 4.8 µM (≈ 2.64 µg/mL)
Compound: CC(C)n1cc(Nc2nc(N)nc(-c3cccc(-n4ccc5cc(C6CC6)cc(F)c5c4=O)c3CO)n2)cc1C#N

- solubility kinetic at 1 h [1]: 9.5 µM (≈ 5.8 µg/mL)
Compound: COCCOCCn1cc(Nc2nc(N)nc(-c3cccc(-n4ccc5cc(C6CC6)cc(F)c5c4=O)c3CO)n2)cc1C#N

- solubility kinetic at 1 h [1]: 0.71 µM (≈ 0.381 µg/mL)
Compound: CCn1cc(Nc2nc(N)nc(-c3cccc(-n4ccc5cc(C6CC6)cc(F)c5c4=O)c3CO)n2)cc1C#N

- solubility kinetic at 1 h [1]: 4.7 µM (≈ 2.47 µg/mL)
Compound: Nc1nc(Nc2cnn(C3CC3)c2)nc(-c2cccc(-n3ccc4cc(C5CC5)cc(F)c4c3=O)c2CO)n1

- Papp [12]: 16.3 ×10⁻⁶ cm/s
Compound: CC(C)(C)c1ccc(C(=O)Nc2cccc(-c3nc(N)nc(Nc4ccc(N5CCOCC5)cc4)n3)c2CO)cc1
